Columns and labels:
Type in all cases: biochemical
[1] = molecular target: T1, UGT 1A8 (Homo sapiens, UniProt Q9HAW9); experiment: UGT activity: utilization of substrate by recombinant UGT 1A8 Supersomes; settings: 2 hour incubation at 37° C., plus vs minus UDPGA, background corrected
T1 construct: purchased BD Gentest; host or cells: insect cells (microsomes)
T1 sequence (Q9HAW9 26-530): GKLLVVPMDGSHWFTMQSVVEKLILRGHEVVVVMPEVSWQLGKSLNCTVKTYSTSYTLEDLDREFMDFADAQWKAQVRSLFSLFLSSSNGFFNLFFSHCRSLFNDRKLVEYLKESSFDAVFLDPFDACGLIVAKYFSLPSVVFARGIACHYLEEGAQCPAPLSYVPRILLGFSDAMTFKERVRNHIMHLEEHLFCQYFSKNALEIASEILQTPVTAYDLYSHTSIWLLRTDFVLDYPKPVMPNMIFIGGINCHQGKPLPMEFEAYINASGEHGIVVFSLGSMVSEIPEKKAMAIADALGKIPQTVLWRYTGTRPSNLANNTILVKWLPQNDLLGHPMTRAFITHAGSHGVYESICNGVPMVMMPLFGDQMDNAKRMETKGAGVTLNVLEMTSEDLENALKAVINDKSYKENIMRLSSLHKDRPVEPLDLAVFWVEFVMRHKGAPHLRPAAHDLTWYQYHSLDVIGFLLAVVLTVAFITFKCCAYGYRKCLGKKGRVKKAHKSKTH
Experimental: (§1) The invention includes a method of determining activity of the uridine 5′-diphospho-glucuronosyltransferase (UDP-glucuronosyltransferase, or UGT) family enzymes in vitro. Briefly, UGT enzymes from overexpressed insect microsomes (Supersomes™, BD Gentest™) or animal tissue microsomes (Xenotech, BD Gentest™) were incubated with a cyanobenzothiazole substrate of the invention and the cofactor UDP-glucuronic acid (UDPGA) at 37° C. in buffer at physiological pH containing MgCl2 and alamethicin (typically, 50 mM TES, pH 7.5, 8 mM MgCl2, 4 mM UDPGA (Sigma) and 25 μg/mL alamethicin (Sigma)). Following the UGT enzyme reaction, an equal volume of P450-Glo Luciferin Detection Reagent (Promega) containing 15-30 mM D-cysteine-HCl.H2O (Sigma) was added and the plate was mixed and incubated at room temperature, typically for 20-30 minutes. […]
(§2) During this incubation, the cysteine reacts with the cyanobenzathiozole substrate to yield a D-luciferin derivative. […] Therefore, activity of the UGT enzyme can be measured by analyzing the difference (lower or no output) in relative light units (RLU) of a sample in which glucuronidation occurs compared to a sample that was run under the same conditions with no added UDPGA cofactor. […]
(§3) Reactions were assembled in a white 96-well plate. […] After the incubation was completed, the plate was read on a Veritas™ luminometer (Turner BioSystems, Inc.; Sunnyvale, Calif.). […]

[2] = molecular target: T2, UGT 2B17 (Homo sapiens, UniProt O75795); experiment: UGT activity: utilization of substrate by recombinant UGT 2B17 Supersomes; settings: 2 hour incubation at 37° C., plus vs minus UDPGA
T2 construct: purchased BD Gentest; host or cells: insect cells (microsomes)
T2 sequence (O75795 24-530): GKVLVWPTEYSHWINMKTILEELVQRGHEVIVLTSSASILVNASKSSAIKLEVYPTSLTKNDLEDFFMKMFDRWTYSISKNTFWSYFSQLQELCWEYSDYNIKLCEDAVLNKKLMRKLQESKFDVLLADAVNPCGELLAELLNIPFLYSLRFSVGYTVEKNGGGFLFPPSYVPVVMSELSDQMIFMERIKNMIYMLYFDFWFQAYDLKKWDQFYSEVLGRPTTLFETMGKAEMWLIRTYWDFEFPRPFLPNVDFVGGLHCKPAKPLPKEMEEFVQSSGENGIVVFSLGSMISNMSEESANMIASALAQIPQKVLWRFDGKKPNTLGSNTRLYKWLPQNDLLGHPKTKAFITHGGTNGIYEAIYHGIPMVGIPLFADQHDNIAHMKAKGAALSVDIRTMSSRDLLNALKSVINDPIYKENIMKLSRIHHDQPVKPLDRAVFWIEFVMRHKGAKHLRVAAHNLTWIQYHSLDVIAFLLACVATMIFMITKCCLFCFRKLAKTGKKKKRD
Experimental: as §1, §2, §3

[3] = molecular target: T3, UGT 1A4 (Homo sapiens, UniProt P22310); experiment: UGT activity: utilization of substrate by recombinant UGT 1A4 Supersomes; settings: 2 hour incubation at 37° C., plus vs minus UDPGA
T3 construct: purchased BD Gentest; host or cells: insect cells (microsomes)
T3 sequence (P22310 29-534): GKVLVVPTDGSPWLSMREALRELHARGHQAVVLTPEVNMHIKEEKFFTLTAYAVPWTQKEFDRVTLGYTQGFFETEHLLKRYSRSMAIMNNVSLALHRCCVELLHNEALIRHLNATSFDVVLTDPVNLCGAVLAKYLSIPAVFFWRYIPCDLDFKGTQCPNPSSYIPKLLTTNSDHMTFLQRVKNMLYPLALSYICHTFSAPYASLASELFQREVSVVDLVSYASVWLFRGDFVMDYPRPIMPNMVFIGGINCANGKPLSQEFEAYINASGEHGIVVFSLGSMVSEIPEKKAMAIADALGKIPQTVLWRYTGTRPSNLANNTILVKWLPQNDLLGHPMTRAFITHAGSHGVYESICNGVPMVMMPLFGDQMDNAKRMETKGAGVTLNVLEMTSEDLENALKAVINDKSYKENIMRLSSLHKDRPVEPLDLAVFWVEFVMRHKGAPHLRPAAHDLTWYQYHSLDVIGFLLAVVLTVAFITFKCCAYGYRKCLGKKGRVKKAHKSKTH
Experimental: The invention includes a method of determining activity of the uridine 5′-diphospho-glucuronosyltransferase (UDP-glucuronosyltransferase, or UGT) family enzymes in vitro. Briefly, UGT enzymes from overexpressed insect microsomes (Supersomes™, BD Gentest™) or animal tissue microsomes (Xenotech, BD Gentest™) were incubated with a cyanobenzothiazole substrate of the invention and the cofactor UDP-glucuronic acid (UDPGA) at 37° C. in buffer at physiological pH containing MgCl2 and alamethicin (typically, 50 mM TES, pH 7.5, 8 mM MgCl2, 4 mM UDPGA (Sigma) and 25 μg/mL alamethicin (Sigma)). Following the UGT enzyme reaction, an equal volume of P450-Glo Luciferin Detection Reagent (Promega) containing 15-30 mM D-cysteine-HCl.H2O (Sigma) was added and the plate was mixed and incubated at room temperature, typically for 20-30 minutes. P450-Glo Luciferin Detection Reagent can be prepared by dissolving a vial of Promega Luciferin Detection Reagent (Promega Part #V859B) with a vial of Promega P450-Glo Buffer (Promega Part #V865B).
During this incubation, the cysteine reacts with the cyanobenzathiozole substrate to yield a D-luciferin derivative. […] Therefore, activity of the UGT enzyme can be measured by analyzing the difference (lower or no output) in relative light units (RLU) of a sample in which glucuronidation occurs compared to a sample that was run under the same conditions with no added UDPGA cofactor.
In this example, a series of 12 recombinant UGTs expressed in insect microsomes (Supersomes™, BD Gentest™), as well as the control microsomes not expressing the UGT enzyme, were incubated with compound 3138, compound 3478, or compound 3165 as substrates, with or without the UDPGA co-factor. […]
as §3

| Compound | % utilization by UGT 1A8 [1] | utilization by UGT 2B17 (in words) [2] | utilization by UGT 1A4 (in words) [3] |
| --- | --- | --- | --- |
| Cc1cc(O)cc2sc(C#N)nc12 [compound 3138] | over 50% | detectable levels of utilization above background | did not utilize either compound 3138 or 3478 to an appreciable extent |
| Cc1cc(O)cc2sc(C3=NC(C(=O)O)CS3)nc12 (stereo not drawn) [compound 3478] | ≤ 15% | only UGT 1A6 was able to utilize compound 3478 to any appreciable extent | did not utilize either compound 3138 or 3478 to an appreciable extent |

— patent publication US8551721B2, “Bioluminescent detection of cyanohydroxy benzothiazole compounds” (Promega Corporation, priority 2008, dated 2013)
